Laboratory results from patent US7378433B2, “N-[4-(heteroarylmethyl)phenyl]-heteroarylamines” (Janssen Pharmaceutica, N.V., priority 1996, dated 2008).

tested on: RA-metabolism in MCF-7 human breast cancer cells; assay: Inhibition of retinoic acid (RA) metabolism; format: cell-based; details: MCF7, concentration needed to reduce the amount of polar 3H-RA metabolites to 50% of the control, MCF-7 cells
Excerpt: The property to delay the metabolism of retinoic acid can be evidenced in various in vitro and in vivo experiments. A particular in vitro procedure is described in example C.1 and tests the inhibitory activity of the compounds of formula (I) on the metabolism of retinoic acid in human breast cancer cells. The compounds of the present invention were also effective in suppressing induced vaginal keratinization effects in ovariectomized rats as is described in example C.2.
MCF-7 human breast cancer cells were grown as stock cultures according to art-known protocols. One day before the experiment, RA is added to the stock cultures to stimulate RA-metabolism. At the start of the experiment, cell suspensions were incubated in a tissue culture medium containing ^3H-RA as the substrate. Different concentrations of the test compound (dissolved in 1% DMSO) were added to the incubation mixtures, and at the end of the incubation, the unmetabolized RA is separated from its polar metabolites. The fraction containing the polar ^3H-labeled metabolites was collected and counted in a scintillation counter. For each experiment, a control and a blank incubation were run in parallel.

IC50, < 10 nM:
CCC(CC)C(c1ccc(Nc2nc3ccccc3o2)cc1)n1cncn1 (centres unmarked) [Compound 56, N-[4-[2-ethyl-1-(1H-1,2,4-triazol-1-yl)butyl]phenyl]-2-benzoxazolamine]
c1ccc2sc(Nc3ccc(Cn4ccnc4)cc3)nc2c1 [Compound 24, N-[4-(1H-imidazol-1-ylmethyl)-phenyl]-2-benzothiazolamine]
Cc1csc(Nc2ccc(C(C(C)C)n3ccnc3)cc2)n1 (racemic) [Compound 50, (±)-N-[4-[1-(1H-imidazol-1-yl)-2-methylpropyl]phenyl]-4-methyl-2-thiazolamine]
CC(C)C(c1ccc(Nc2nccs2)cc1)n1ccnc1 (racemic) [Compound 51, (±)-N-[4-[1-(1H-imidazol-1-yl)-2-methylpropyl]phenyl]-2-thiazolamine]
CCC(CC)C(c1ccc(Nc2nc3ccccc3s2)cc1)n1cncn1 (racemic) [Compound 25, (±)-N-[4-[2-ethyl-1-(1H-1,2,4-triazol-1-yl)butyl]phenyl]-2-benzothiazol-amine]
